Assay: Ex vivo biodistribution (gamma counter)
Format: in vivo, healthy male C57BL/6 mice
Settings: Hg-197g, 2 h post administration
Protocol: For animal injection, the tracer was prepared at high molar activity. Radiolabeling of H4Tetrathiol (10^–2 M in DMSO; 40 μL for imaging, 20 μL for bioD) (or DMSO, for [^197m/gHg]HgCl2 mice) with [^197m/gHg]HgCl2 (imaging: 26.7 MBq total m + g, 62 μL; bioD: 13.04 MBq total m + g, 31 μL) was performed in a mixture of ammonium acetate buffer (1 M; pH 7; 198 μL for imaging or 149 μL for bioD) and 6 M NaOH (72 μL or 38 μL required to achieve a pH of 7.5 after addition of activity, for imaging or BioD labeling, respectively). The reaction was allowed to stand for 1 h at 37 °C and quantitative (> 99%) non-isolated percentage radiochemical yield (%RCY) was confirmed via the iTLC methods mentioned above. Further, 100 µL of the reaction was diluted with 50 µL of PBS Tween-20 (0.01 M sodium phosphate, 0.15 M NaCl, 0.05% Tween-20) for imaging mice, or 50 µL of the reaction was diluted with 100 µL of PBS Tween-20 for BioD mice. The tracers were prepared immediately before injection to avoid radiolysis and minimize the tracer loss to any surfaces due to its lipophilicity. The injected doses of each isomer, ^197mHg and ^197gHg, were quantified by measuring an aliquot of known volume of each tracer preparation via HPGe gamma spectroscopy and decay corrected for time of injection using the Eqs. (1) and (2).
The study was conducted in compliance with the guidelines set by the Canadian Council on Animal Care (CCAC) and approved by the Animal Care Committee (ACC) at the University of British Columbia (A20-0132). A total of eight healthy male C57BL/6 mice weighing approximately 30 g for group 1 and 25 g for group 2 were used in the study. The mice were divided into two experimental groups: group 1 (n = 4) received free [^197m/gHg]HgCl2, while group 2 (n = 4) received [^197m/gHg]Hg-Tetrathiol. Within each group, one mouse was allocated for imaging, while the rest were designated for ex vivo biodistribution analysis. For SPECT imaging, the designated mice were anesthetized using isoflurane via a precision vaporizer. […] Once anesthetized, each imaging mouse received an intravenous (IV) injection via the lateral tail vein of 150 μL of [^197m/gHg]HgCl2 (0.492 MBq ^197mHg + 3.171 MBq ^197gHg) or [^197m/gHg]Hg-Tetrathiol (0.899 MBq ^197mHg + 4.230 MBq ^197gHg) in PBS Tween-20 (0.01 M Na Phosphate, 0.15 M NaCl, 0.05% Tween-20).
Mice received an IV injection of [^197m/gHg]HgCl2 (0.275 MBq ^197mHg + 1.758 MBq ^197gHg, 150 μL) or [^197m/gHg]Hg-Tetrathiol (0.384 MBq ^197mHg + 1.733 MBq ^197gHg, 150 μL) (n = 3 per group) via the lateral tail vein using a Tailveiner restrainer. After the injection, the mice were returned to their experimental cages and allowed unrestricted movement. Biodistribution studies were conducted 2 h after administration. Mice were humanely euthanized with an overdose of isoflurane followed by cardiac puncture to collect blood pool activity. The organs of interest were fully extracted, cleaned of blood without rinsing, weighed, and analysed for radioactivity using a calibrated gamma counter with the 55–93 keV energy window for ^197gHg and the 110–160 keV energy window for ^197mHg (Packard Cobra II, Perkin Elmer, Waltham, MA, USA). The stomach and intestines were carefully cleaned prior to analysis to remove residual contents. For tissues and fluids that could not be fully removed (muscle, blood and bone) activity values were extrapolated based on standardised organ weights for age- and sex-matched mice tables to ensure accurate normalization (Davies and Morris [1993]; Foster et al. [2014]). The stomach and whole intestines were cleaned before analysis. The radioactivity measurements were decay corrected for time of injection using the Eqs. (1) and (2). The results are reported as the percentage of the injected activity per gram of tissue (%IA/g) and percentage of the injected activity per tissue (%IA/organ).

[Cl][Hg][Cl] [[^197m/gHg]HgCl2]
Animal 1 (%IA/Organ): bladder: 0.10 %IA/Organ
Animal 1 (%IA/Organ): blood: 7.19 %IA/Organ
Animal 1 (%IA/Organ): bone: 4.96 %IA/Organ
Animal 1 (%IA/Organ): brain: 0.08 %IA/Organ
Animal 1 (%IA/Organ): feces: 0.04 %IA/Organ
Animal 1 (%IA/Organ): heart: 0.39 %IA/Organ
Animal 1 (%IA/Organ): kidneys: 51.84 %IA/Organ
Animal 1 (%IA/Organ): large intestine: 0.85 %IA/Organ
Animal 1 (%IA/Organ): liver: 11.53 %IA/Organ
Animal 1 (%IA/Organ): lungs: 0.87 %IA/Organ
Animal 1 (%IA/Organ): muscle: 12.34 %IA/Organ
Animal 1 (%IA/Organ): pancreas: 0.32 %IA/Organ
Animal 1 (%IA/Organ): small intestine: 0.99 %IA/Organ
Animal 1 (%IA/Organ): spleen: 0.47 %IA/Organ
Animal 1 (%IA/Organ): stomach: 0.29 %IA/Organ
Animal 1 (%IA/Organ): tail: 4.00 %IA/Organ
Animal 1 (%IA/Organ): urine: 1.57 %IA/Organ
Animal 1 (%IA/g) g: bladder: 1.28 %IA/g
Animal 1 (%IA/g) g: blood: 4.25 %IA/g
Animal 1 (%IA/g) g: bone: 2.26 %IA/g
Animal 1 (%IA/g) g: brain: 0.19 %IA/g
Animal 1 (%IA/g) g: feces: 0.96 %IA/g
Animal 1 (%IA/g) g: heart: 2.62 %IA/g
Animal 1 (%IA/g) g: kidneys: 110 %IA/g
Animal 1 (%IA/g) g: large intestine: 3.42 %IA/g
Animal 1 (%IA/g) g: lungs: 5.68 %IA/g
Animal 1 (%IA/g) g: muscle: 0.94 %IA/g
Animal 1 (%IA/g) g: pancreas: 1.76 %IA/g
Animal 1 (%IA/g) g: small intestine: 4.46 %IA/g
Animal 1 (%IA/g) g: spleen: 5.78 %IA/g
Animal 1 (%IA/g) g: stomach: 2.45 %IA/g
Animal 1 (%IA/g) g: tail: 7.68 %IA/g
Animal 1 (%IA/g) g: urine: 5.10 %IA/g
Animal 2 (%IA/Organ): bladder: 0.06 %IA/Organ
Animal 2 (%IA/Organ): blood: 5.88 %IA/Organ
Animal 2 (%IA/Organ): bone: 4.05 %IA/Organ
Animal 2 (%IA/Organ): brain: 0.04 %IA/Organ
Animal 2 (%IA/Organ): feces: 0.02 %IA/Organ
Animal 2 (%IA/Organ): heart: 0.21 %IA/Organ
Animal 2 (%IA/Organ): kidneys: 44.76 %IA/Organ
Animal 2 (%IA/Organ): large intestine: 0.60 %IA/Organ
Animal 2 (%IA/Organ): liver: 6.34 %IA/Organ
Animal 2 (%IA/Organ): lungs: 0.50 %IA/Organ
Animal 2 (%IA/Organ): muscle: 6.72 %IA/Organ
Animal 2 (%IA/Organ): pancreas: 0.22 %IA/Organ
Animal 2 (%IA/Organ): small intestine: 0.66 %IA/Organ
Animal 2 (%IA/Organ): spleen: 0.25 %IA/Organ
Animal 2 (%IA/Organ): stomach: 0.18 %IA/Organ
Animal 2 (%IA/Organ): tail: 2.34 %IA/Organ
Animal 2 (%IA/Organ): urine: 0.04 %IA/Organ
Animal 2 (%IA/g) g: bladder: 2.73 %IA/g
Animal 2 (%IA/g) g: blood: 3.53 %IA/g
Animal 2 (%IA/g) g: bone: 1.87 %IA/g
Animal 2 (%IA/g) g: brain: 0.10 %IA/g
Animal 2 (%IA/g) g: feces: 0.42 %IA/g
Animal 2 (%IA/g) g: heart: 1.60 %IA/g
Animal 2 (%IA/g) g: kidneys: 107 %IA/g
Animal 2 (%IA/g) g: large intestine: 2.61 %IA/g
Animal 2 (%IA/g) g: liver: 5.13 %IA/g
Animal 2 (%IA/g) g: lungs: 3.11 %IA/g
Animal 2 (%IA/g) g: muscle: 0.52 %IA/g
Animal 2 (%IA/g) g: pancreas: 1.31 %IA/g
Animal 2 (%IA/g) g: small intestine: 2.72 %IA/g
Animal 2 (%IA/g) g: spleen: 3.43 %IA/g
Animal 2 (%IA/g) g: stomach: 1.70 %IA/g
Animal 2 (%IA/g) g: tail: 4.62 %IA/g
Animal 2 (%IA/g) g: urine: 3.81 %IA/g
Animal 3 (%IA/Organ): bladder: 0.03 %IA/Organ
Animal 3 (%IA/Organ): blood: 5.49 %IA/Organ
Animal 3 (%IA/Organ): bone: 3.89 %IA/Organ
Animal 3 (%IA/Organ): brain: 0.05 %IA/Organ
Animal 3 (%IA/Organ): feces: 0.09 %IA/Organ
Animal 3 (%IA/Organ): heart: 0.20 %IA/Organ
Animal 3 (%IA/Organ): kidneys: 46.92 %IA/Organ
Animal 3 (%IA/Organ): large intestine: 0.43 %IA/Organ
Animal 3 (%IA/Organ): liver: 6.61 %IA/Organ
Animal 3 (%IA/Organ): lungs: 0.50 %IA/Organ
Animal 3 (%IA/Organ): muscle: 6.84 %IA/Organ
Animal 3 (%IA/Organ): pancreas: 0.25 %IA/Organ
Animal 3 (%IA/Organ): small intestine: 0.62 %IA/Organ
Animal 3 (%IA/Organ): spleen: 0.22 %IA/Organ
Animal 3 (%IA/Organ): stomach: 0.18 %IA/Organ
Animal 3 (%IA/Organ): tail: 2.23 %IA/Organ
Animal 3 (%IA/Organ): urine: 0.63 %IA/Organ
Animal 3 (%IA/g) g: bladder: 1.50 %IA/g
Animal 3 (%IA/g) g: blood: 3.33 %IA/g
Animal 3 (%IA/g) g: bone: 1.79 %IA/g
Animal 3 (%IA/g) g: brain: 0.11 %IA/g
Animal 3 (%IA/g) g: feces: 2.78 %IA/g
Animal 3 (%IA/g) g: heart: 1.46 %IA/g
Animal 3 (%IA/g) g: kidneys: 108 %IA/g
Animal 3 (%IA/g) g: large intestine: 2.41 %IA/g
Animal 3 (%IA/g) g: liver: 4.96 %IA/g
Animal 3 (%IA/g) g: lungs: 3.44 %IA/g
Animal 3 (%IA/g) g: muscle: 0.53 %IA/g
Animal 3 (%IA/g) g: pancreas: 1.39 %IA/g
Animal 3 (%IA/g) g: small intestine: 2.89 %IA/g
Animal 3 (%IA/g) g: spleen: 2.94 %IA/g
Animal 3 (%IA/g) g: stomach: 1.57 %IA/g
Animal 3 (%IA/g) g: tail: 4.40 %IA/g
Animal 3 (%IA/g) g: urine: 3.90 %IA/g
Animal 4 (%IA/Organ): bladder: 0.07 %IA/Organ
Animal 4 (%IA/Organ): blood: 4.67 %IA/Organ
Animal 4 (%IA/Organ): bone: 3.74 %IA/Organ
Animal 4 (%IA/Organ): brain: 0.05 %IA/Organ
Animal 4 (%IA/Organ): feces: 0.07 %IA/Organ
Animal 4 (%IA/Organ): heart: 0.21 %IA/Organ
Animal 4 (%IA/Organ): kidneys: 49.72 %IA/Organ
Animal 4 (%IA/Organ): large intestine: 0.41 %IA/Organ
Animal 4 (%IA/Organ): liver: 6.62 %IA/Organ
Animal 4 (%IA/Organ): lungs: 0.46 %IA/Organ
Animal 4 (%IA/Organ): muscle: 6.43 %IA/Organ
Animal 4 (%IA/Organ): pancreas: 0.20 %IA/Organ
Animal 4 (%IA/Organ): small intestine: 0.54 %IA/Organ
Animal 4 (%IA/Organ): spleen: 0.32 %IA/Organ
Animal 4 (%IA/Organ): stomach: 0.17 %IA/Organ
Animal 4 (%IA/Organ): tail: 1.77 %IA/Organ
Animal 4 (%IA/Organ): urine: 0.38 %IA/Organ
Animal 4 (%IA/g) g: bladder: 2.90 %IA/g
Animal 4 (%IA/g) g: blood: 3.00 %IA/g
Animal 4 (%IA/g) g: bone: 1.85 %IA/g
Animal 4 (%IA/g) g: brain: 0.12 %IA/g
Animal 4 (%IA/g) g: feces: 1.01 %IA/g
Animal 4 (%IA/g) g: heart: 1.49 %IA/g
